The values below are quoted from earlier work in US10471038B2, “Inhibitor of muscle damage or muscle fatigue” ([…] LABORATORY, CO., LTD., priority 2015, dated 2019).

This data set concerns calpain. As to conditions: mdx mice, intramuscular injection.

For `CC(=O)N[C@@H](CC(C)C)C(=O)N[C@@H](CC(C)C)C(=O)N[C@H](C=O)CCCNC(=N)N` [leupeptin], the “activation of calpain in muscle tissue and muscle breakdown” value is “inhibited”.
